Laboratory results published in patent US8969516B2, “Method of hydrolysis of peptide bond” (priority 2006, dated 2015).

Experiment: MALDI-TOF screening of Ni^2+ dependent hydrolysis in a combinatorial peptide library
Assay type: physicochemical
Conditions: CH3CO-Gly-Ala-Ser-X-His-Z-Lys-Phe-Leu-NH2 library, Ni^2+ 2 mM, pH 8.2, 10 mM Tris, score=24/tm
How it was run: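 The screen used 1 mM peptide mixtures in 10 mM Tris, pH 8.2, with 2 mM Ni2+ at two temperatures, 37 °C and 45 °C. Product appearance and substrate decline were monitored visually by MALDI-TOF over 8 h. Scores for X and Z were then summed by row and column to rank substitutions.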

Substance	hydrolysis score from MALDI-TOF screening (37° C.)	hydrolysis score from MALDI-TOF screening (45° C.)
Ac-GASPHEKFL-NH2 [SPHE]	0 (a score of 0 if no trace of the product of hydrolysis was seen after 8 hours of incubation)	0 (a score of 0 if no trace of the product of hydrolysis was seen after 8 hours of incubation)
Ac-GASPHFKFL-NH2 [SPHF]	0 (a score of 0 if no trace of the product of hydrolysis was seen after 8 hours of incubation)	0 (a score of 0 if no trace of the product of hydrolysis was seen after 8 hours of incubation)
Ac-GASPHGKFL-NH2 [SPHG]	0 (a score of 0 if no trace of the product of hydrolysis was seen after 8 hours of incubation)	0 (a score of 0 if no trace of the product of hydrolysis was seen after 8 hours of incubation)
Ac-GASPHHKFL-NH2 [SPHH]	0 (a score of 0 if no trace of the product of hydrolysis was seen after 8 hours of incubation)	0 (a score of 0 if no trace of the product of hydrolysis was seen after 8 hours of incubation)
Ac-GASPHIKFL-NH2 [SPHI]	0 (a score of 0 if no trace of the product of hydrolysis was seen after 8 hours of incubation)	0 (a score of 0 if no trace of the product of hydrolysis was seen after 8 hours of incubation)
Ac-GASPHKKFL-NH2 [SPHK]	0 (a score of 0 if no trace of the product of hydrolysis was seen after 8 hours of incubation)	0 (a score of 0 if no trace of the product of hydrolysis was seen after 8 hours of incubation)
Ac-GASPHLKFL-NH2 [SPHL]	0 (a score of 0 if no trace of the product of hydrolysis was seen after 8 hours of incubation)	0 (a score of 0 if no trace of the product of hydrolysis was seen after 8 hours of incubation)
Ac-GASPHMKFL-NH2 [SPHM]	0 (a score of 0 if no trace of the product of hydrolysis was seen after 8 hours of incubation)	0 (a score of 0 if no trace of the product of hydrolysis was seen after 8 hours of incubation)
Ac-GASPHNKFL-NH2 [SPHN]	0 (a score of 0 if no trace of the product of hydrolysis was seen after 8 hours of incubation)	0 (a score of 0 if no trace of the product of hydrolysis was seen after 8 hours of incubation)
Ac-GASPHPKFL-NH2 [SPHP]	0 (a score of 0 if no trace of the product of hydrolysis was seen after 8 hours of incubation)	0 (a score of 0 if no trace of the product of hydrolysis was seen after 8 hours of incubation)
Ac-GASPHQKFL-NH2 [SPHQ]	0 (a score of 0 if no trace of the product of hydrolysis was seen after 8 hours of incubation)	0 (a score of 0 if no trace of the product of hydrolysis was seen after 8 hours of incubation)
Ac-GASPHRKFL-NH2 [SPHR]	0 (a score of 0 if no trace of the product of hydrolysis was seen after 8 hours of incubation)	0 (a score of 0 if no trace of the product of hydrolysis was seen after 8 hours of incubation)
Ac-GASPHSKFL-NH2 [SPHS]	0 (a score of 0 if no trace of the product of hydrolysis was seen after 8 hours of incubation)	0 (a score of 0 if no trace of the product of hydrolysis was seen after 8 hours of incubation)
Ac-GASPHTKFL-NH2 [SPHT]	0 (a score of 0 if no trace of the product of hydrolysis was seen after 8 hours of incubation)	0 (a score of 0 if no trace of the product of hydrolysis was seen after 8 hours of incubation)
Ac-GASPHVKFL-NH2 [SPHV]	0 (a score of 0 if no trace of the product of hydrolysis was seen after 8 hours of incubation)	0 (a score of 0 if no trace of the product of hydrolysis was seen after 8 hours of incubation)
Ac-GASPHWKFL-NH2 [SPHW]	0 (a score of 0 if no trace of the product of hydrolysis was seen after 8 hours of incubation)	0 (a score of 0 if no trace of the product of hydrolysis was seen after 8 hours of incubation)
Ac-GASPHYKFL-NH2 [SPHY]	0 (a score of 0 if no trace of the product of hydrolysis was seen after 8 hours of incubation)	0 (a score of 0 if no trace of the product of hydrolysis was seen after 8 hours of incubation)
Ac-GASQHAKFL-NH2 [SQHA]	0 (a score of 0 if no trace of the product of hydrolysis was seen after 8 hours of incubation)	3 (a score of 3 for detection at 8 hours)

Substance	hydrolysis score from MALDI-TOF screening (37° C.)	hydrolysis score from MALDI-TOF screening (45° C.)
Ac-GASQHDKFL-NH2 [SQHD]	0 (a score of 0 if no trace of the product of hydrolysis was seen after 8 hours of incubation)	0 (a score of 0 if no trace of the product of hydrolysis was seen after 8 hours of incubation)
Ac-GASQHEKFL-NH2 [SQHE]	0 (a score of 0 if no trace of the product of hydrolysis was seen after 8 hours of incubation)	0 (a score of 0 if no trace of the product of hydrolysis was seen after 8 hours of incubation)
Ac-GASQHFKFL-NH2 [SQHF]	3 (a score of 3 for detection at 8 hours)	4 (a score of 4 for detection at 6 hours)
Ac-GASQHGKFL-NH2 [SQHG]	0 (a score of 0 if no trace of the product of hydrolysis was seen after 8 hours of incubation)	0 (a score of 0 if no trace of the product of hydrolysis was seen after 8 hours of incubation)
Ac-GASQHHKFL-NH2 [SQHH]	0 (a score of 0 if no trace of the product of hydrolysis was seen after 8 hours of incubation)	0 (a score of 0 if no trace of the product of hydrolysis was seen after 8 hours of incubation)
Ac-GASQHIKFL-NH2 [SQHI]	6 (a score of 6 for detection at 4 hours)	6 (a score of 6 for detection at 4 hours)
Ac-GASQHKKFL-NH2 [SQHK]	4 (a score of 4 for detection at 6 hours)	6 (a score of 6 for detection at 4 hours)
Ac-GASQHLKFL-NH2 [SQHL]	6 (a score of 6 for detection at 4 hours)	6 (a score of 6 for detection at 4 hours)
Ac-GASQHMKFL-NH2 [SQHM]	0 (a score of 0 if no trace of the product of hydrolysis was seen after 8 hours of incubation)	3 (a score of 3 for detection at 8 hours)
Ac-GASQHNKFL-NH2 [SQHN]	0 (a score of 0 if no trace of the product of hydrolysis was seen after 8 hours of incubation)	0 (a score of 0 if no trace of the product of hydrolysis was seen after 8 hours of incubation)
Ac-GASQHPKFL-NH2 [SQHP]	0 (a score of 0 if no trace of the product of hydrolysis was seen after 8 hours of incubation)	0 (a score of 0 if no trace of the product of hydrolysis was seen after 8 hours of incubation)
Ac-GASQHQKFL-NH2 [SQHQ]	0 (a score of 0 if no trace of the product of hydrolysis was seen after 8 hours of incubation)	0 (a score of 0 if no trace of the product of hydrolysis was seen after 8 hours of incubation)
Ac-GASQHRKFL-NH2 [SQHR]	6 (a score of 6 for detection at 4 hours)	6 (a score of 6 for detection at 4 hours)
Ac-GASQHSKFL-NH2 [SQHS]	0 (a score of 0 if no trace of the product of hydrolysis was seen after 8 hours of incubation)	0 (a score of 0 if no trace of the product of hydrolysis was seen after 8 hours of incubation)
Ac-GASQHTKFL-NH2 [SQHT]	0 (a score of 0 if no trace of the product of hydrolysis was seen after 8 hours of incubation)	0 (a score of 0 if no trace of the product of hydrolysis was seen after 8 hours of incubation)
Ac-GASQHVKFL-NH2 [SQHV]	0 (a score of 0 if no trace of the product of hydrolysis was seen after 8 hours of incubation)	4 (a score of 4 for detection at 6 hours)
Ac-GASQHWKFL-NH2 [SQHW]	6 (a score of 6 for detection at 4 hours)	6 (a score of 6 for detection at 4 hours)
